Measurements from publication PMC8234462, “Novel Cyclophilin Inhibitor Decreases Cell Proliferation and Tumor Growth in Models of Hepatocellular Carcinoma” (Cancers, 2021).

System: iPS cardiomyocytes
Assay: Cytotoxicity, CellTiter Glo
Assay type: cell-based
Settings: Homo sapiens, Cardiomyocyte, 72 h, 3 days of treatment, read-out: IC50 (50% reduction in cell viability)
Description: The evaluation of the off-target effects of NV651 was performed by ImQuest BioSciences Inc. (Frederick, MD, USA) by analyzing the cytotoxicity in a panel of primary cells. NV651 was evaluated at a concentration of 30 µM and five serial half-logarithmic dilutions in triplicate. The positive control compounds for each cell type were purchased from Sigma-Aldrich (St. Louis, MO, USA) and were as follows: Unstimulated human peripheral blood mononuclear cells (PBMCs), phytohemagglutinin (PHA)-stimulated PBMCs, monocytes/macrophages, dendritic cells, hepatocytes, induced pluripotent stem cell (iPS) neurons: […] AZT, kidney cells (RPTEC): cisplatin and iPS cardiomyocytes: Doxazosin. iPS cardiomyocytes (Cellular Dynamics, Madison, WI, USA) were seeded in a 96-well plate precoated with 0.1% gelatin (Sigma-Aldrich, St. Louis, MO, USA) in a plating medium (Cellular dynamics, Madison, WI, USA) at a concentration of 1.5 × 10^4 cells/well. After 48 h of incubation, cells were washed, and NV651 diluted in the maintenance medium (Cellular Dynamics, Madison, WI, USA) was added. After 3 days of incubation, cell viability was measured with CellTiter Glo (Promega, Madison, WI, USA). CellTiter Glo was performed to evaluate cell viability. CellTiter Glo Luminescent Cell Viability Assay (Promega, Madison, WI, USA) was performed according to the manufacturer’s instructions.

Compound: CC(=O)CCC1C(=O)NC(C(C)C)C(=O)NC(Cc2cc(O)cc(F)c2)C(=O)N2CCCC(N2)C(=O)OC(C(C)=CC=CC(=O)OC(C)(C)C)CC=CC=CC(O)C(C)C1O (stereo not shown) [NV651]
- IC50: > 30 µM
